≈ marks a conversion by molar mass, not a printed value.
What was measured:
Experiment in all cases: In vitro antibacterial evaluation: minimum inhibitory concentration (MIC), broth dilution method
Assay type in all cases: cell-based
Conditions in all cases: 18 hours at 35° C.
Streptococcus sp. = tested on: Streptococcus sp.
Method in brief: (§1)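 Inoculum: 5×10^5 CFU/mL. Range: 64-0.06 μg/mL. Medium: Muller-Hinton II […]; NCCLS M7-A2 broth dilution. Endpoint: lowest concentration inhibiting growth. Strains include methicillin-, penicillin- and/or vancomycin-resistant clinical isolates.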

Staphylococcus sp. = tested on: Staphylococcus sp.
Method in brief: as §1

Escherichia coli = tested on: Escherichia coli
Method in brief: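 Following NCCLS approved standard M7-A2, compounds are serially diluted from 64 to 0.06 μg/mL in Muller-Hinton II […] and inoculated at 5×10^5 CFU/mL; the MIC is the minimum concentration at which growth is inhibited.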

Enterococcus sp. = tested on: Enterococcus sp.
Method in brief: as §1

[1] = broth dilution, inoculum 5×10^5 CFU/mL

MIC Streptococcus agalactiae (GC 4564) (Streptococcus sp.; Streptococcus agalactiae (GC 4564)): 2 µg/mL (≈ 1.4 µM)
MIC Streptococcus pneumoniae (ATCC 6301) (Streptococcus sp.; Streptococcus pneumoniae (ATCC 6301)): 0.5 µg/mL (≈ 0.349 µM)
MIC Streptococcus pneumoniae (GC 1894) (Streptococcus sp.; Streptococcus pneumoniae (GC 1894)): 0.25 µg/mL (≈ 0.174 µM)
MIC Streptococcus pneumoniae (GC 4565) (Streptococcus sp.; Streptococcus pneumoniae (GC 4565)): 0.5 µg/mL (≈ 0.349 µM)
MIC Streptococcus pyogenes (GC 4563) (Streptococcus sp.; Streptococcus pyogenes (GC 4563)): 1 µg/mL (≈ 0.698 µM)
MIC Streptococcus agalactiae (GC 4564) (Streptococcus sp.; [1]): 2 µg/mL (≈ 1.4 µM)
MIC Streptococcus pneumoniae (ATCC 6301) (Streptococcus sp.; [1]): 0.5 µg/mL (≈ 0.349 µM)
MIC Streptococcus pneumoniae (GC 1894) (Streptococcus sp.; [1]): 0.25 µg/mL (≈ 0.174 µM)
MIC Streptococcus pneumoniae (GC 4565) (Streptococcus sp.; [1]): 0.5 µg/mL (≈ 0.349 µM)
MIC Streptococcus pyogenes (GC 4563) (Streptococcus sp.; [1]): 1 µg/mL (≈ 0.698 µM)
MIC Coagulase Negative Staphylococcus (GC 4547) (Staphylococcus sp.; Coagulase Negative Staphylococcus (GC 4547)): 2 µg/mL (≈ 1.4 µM)
MIC Coagulase Negative Staphylococcus (GC 4548) (Staphylococcus sp.; Coagulase Negative Staphylococcus (GC 4548)): 1 µg/mL (≈ 0.698 µM)
MIC Coagulase Negative Staphylococcus (GC 4549) (Staphylococcus sp.; Coagulase Negative Staphylococcus (GC 4549)): 1 µg/mL (≈ 0.698 µM)
MIC Coagulase Negative Staphylococcus (GC 4551) (Staphylococcus sp.; Coagulase Negative Staphylococcus (GC 4551)): 4 µg/mL (≈ 2.79 µM)
MIC Coagulase Negative Staphylococcus (GC 6257) (Staphylococcus sp.; Coagulase Negative Staphylococcus (GC 6257)): 1 µg/mL (≈ 0.698 µM)
MIC Staphylococcus aureus (ATCC 29213) (Staphylococcus sp.; Staphylococcus aureus (ATCC 29213)): 4 µg/mL (≈ 2.79 µM)
MIC Staphylococcus aureus (GC 1131) (Staphylococcus sp.; Staphylococcus aureus (GC 1131)): 4 µg/mL (≈ 2.79 µM)
MIC Staphylococcus aureus (GC 3051) (Staphylococcus sp.; Staphylococcus aureus (GC 3051)): 2 µg/mL (≈ 1.4 µM)
MIC Staphylococcus aureus (GC 3053) (Staphylococcus sp.; Staphylococcus aureus (GC 3053)): 4 µg/mL (≈ 2.79 µM)
MIC Staphylococcus aureus (GC 4541) (Staphylococcus sp.; Staphylococcus aureus (GC 4541)): 2 µg/mL (≈ 1.4 µM)
MIC Staphylococcus aureus (GC 4542) (Staphylococcus sp.; Staphylococcus aureus (GC 4542)): 8 µg/mL (≈ 5.58 µM)
MIC Staphylococcus aureus (GC 4544) (Staphylococcus sp.; Staphylococcus aureus (GC 4544)): 4 µg/mL (≈ 2.79 µM)
MIC Staphylococcus aureus (GC 4545) (Staphylococcus sp.; Staphylococcus aureus (GC 4545)): 2 µg/mL (≈ 1.4 µM)
MIC Staphylococcus aureus-SMITH (GC 4543) (Staphylococcus sp.; Staphylococcus aureus-SMITH (GC 4543)): 2 µg/mL (≈ 1.4 µM)
MIC Escherichia coli (ATCC 25922) (Escherichia coli; Escherichia coli (ATCC 25922)): 64 µg/mL (≈ 44.6 µM)
MIC Escherichia coli (GC 4559) (Escherichia coli; Escherichia coli (GC 4559)): 64 µg/mL (≈ 44.6 µM)
MIC Escherichia coli (GC 4560) (Escherichia coli; Escherichia coli (GC 4560)): 1 µg/mL (≈ 0.698 µM)
MIC Enterococcus avium (GC 4558) (Enterococcus sp.; Enterococcus avium (GC 4558)): 16 µg/mL (≈ 11.2 µM)
MIC Enterococcus faecalis (ATCC 29212) (Enterococcus sp.; Enterococcus faecalis (ATCC 29212)): 16 µg/mL (≈ 11.2 µM)
MIC Enterococcus faecalis (GC 2242) (Enterococcus sp.; Enterococcus faecalis (GC 2242)): 16 µg/mL (≈ 11.2 µM)
MIC Enterococcus faecalis (GC 2691) (Enterococcus sp.; Enterococcus faecalis (GC 2691)): 16 µg/mL (≈ 11.2 µM)
MIC Enterococcus faecalis (GC 3059) (Enterococcus sp.; Enterococcus faecalis (GC 3059)): 32 µg/mL (≈ 22.3 µM)
MIC Enterococcus faecalis (GC 4552) (Enterococcus sp.; Enterococcus faecalis (GC 4552)): 16 µg/mL (≈ 11.2 µM)
MIC Enterococcus faecalis (GC 4553) (Enterococcus sp.; Enterococcus faecalis (GC 4553)): 16 µg/mL (≈ 11.2 µM)
MIC Enterococcus faecalis (GC 4554) (Enterococcus sp.; Enterococcus faecalis (GC 4554)): 32 µg/mL (≈ 22.3 µM)
MIC Enterococcus faecalis (GC 6189) (Enterococcus sp.; Enterococcus faecalis (GC 6189)): 16 µg/mL (≈ 11.2 µM)
MIC Enterococcus faecium (GC 2243) (Enterococcus sp.; Enterococcus faecium (GC 2243)): 16 µg/mL (≈ 11.2 µM)
MIC Enterococcus faecium (GC 4556) (Enterococcus sp.; Enterococcus faecium (GC 4556)): 16 µg/mL (≈ 11.2 µM)
MIC Enterococcus faecium (GC 4557) (Enterococcus sp.; Enterococcus faecium (GC 4557)): 4 µg/mL (≈ 2.79 µM)
MIC Enterococcus faecalis (GC 2242) (Enterococcus sp.; [1]): 16 µg/mL (≈ 11.2 µM)
MIC Enterococcus faecalis (GC 2691) (Enterococcus sp.; [1]): 16 µg/mL (≈ 11.2 µM)
MIC Enterococcus faecalis (GC 3059) (Enterococcus sp.; [1]): 32 µg/mL (≈ 22.3 µM)
Compound: COc1ccc(COCC2OC(OC3C(CO)OC(Oc4ccc(CC5NC(=O)C(C(C)c6ccccc6)NC(=O)CNC(=O)C(CO)NC(=O)C(C(O)C6CNC(=N)N6C6OC(CO)C(O)C(O)C6O)NC(=O)C(C(O)C6CNC(=N)N6)NC5=O)cc4)C(O)C3O)C(O)C(O)C2O)cc1F (stereo not shown) [Example 237]
MIC Staphylococcus haemolyticus (GC 4546) (Staphylococcus sp.; Staphylococcus haemolyticus (GC 4546)): 1 µg/mL (≈ 0.698 µM)
